{"source": "paper PMC4974614", "about": "“Human native kappa opioid receptor functions not predicted by recombinant receptors: Implications for drug design” (Scientific Reports, 2016)", "key": {"[1]": {"target": "Recombinant human receptor", "conditions": "cited from earlier work"}, "[2]": {"target": "Recombinant human receptor", "conditions": "cited from earlier work", "remark": "listed apart in the source"}, "[3]": {"tested_on": "human isolated colon", "assay": "EFS-evoked cholinergically-mediated contractions of human isolated colon", "format": "cell-based", "conditions": "for inhibition at 1 µM: read-out: % inhibition of contractions evoked during EFS; for effect alone on responses to EFS: phentolamine 1 μM and propranolol 1 μM together, descending colon"}, "[4]": {"target": "T1, mouse κ receptor (Mus musculus, UniProt P33534)", "T1 sequence (P33534 whole entry)": "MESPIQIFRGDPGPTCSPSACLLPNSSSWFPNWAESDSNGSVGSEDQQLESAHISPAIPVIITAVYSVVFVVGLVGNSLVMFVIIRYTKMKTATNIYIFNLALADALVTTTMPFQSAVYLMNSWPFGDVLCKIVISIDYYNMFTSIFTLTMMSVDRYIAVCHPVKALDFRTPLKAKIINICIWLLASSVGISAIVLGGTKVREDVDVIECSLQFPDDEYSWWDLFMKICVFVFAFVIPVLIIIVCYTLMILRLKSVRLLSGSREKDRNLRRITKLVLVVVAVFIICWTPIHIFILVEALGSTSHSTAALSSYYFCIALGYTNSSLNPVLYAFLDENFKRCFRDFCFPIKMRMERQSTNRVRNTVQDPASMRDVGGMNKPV", "assay": "cell-based", "conditions": "HEK293, read-out: TR-FRET Emax (%)"}, "[5]": {"target": "T1, mouse κ receptor", "assay": "cell-based", "conditions": "HEK293, read-out: BRET Emax (%)"}, "[6]": {"tested_on": "mouse κ receptors in COS-1 cells", "conditions": "read-out: IC50, radioligand binding; cited from earlier work"}, "[7]": {"target": "T2, human κ receptor (Homo sapiens, UniProt P41145)", "T2 sequence (P41145 whole entry)": "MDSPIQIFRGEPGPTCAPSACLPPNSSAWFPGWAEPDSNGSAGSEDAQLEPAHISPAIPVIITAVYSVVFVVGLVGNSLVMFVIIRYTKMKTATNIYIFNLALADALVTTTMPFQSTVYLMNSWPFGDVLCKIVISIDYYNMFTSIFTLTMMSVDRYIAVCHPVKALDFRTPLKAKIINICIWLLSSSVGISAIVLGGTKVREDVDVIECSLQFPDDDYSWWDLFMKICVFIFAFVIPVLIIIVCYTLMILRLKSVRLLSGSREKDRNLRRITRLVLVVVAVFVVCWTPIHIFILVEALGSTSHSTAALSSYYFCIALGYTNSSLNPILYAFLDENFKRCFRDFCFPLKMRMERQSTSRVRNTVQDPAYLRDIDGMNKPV", "assay": "cell-based", "conditions": "for Emax: HEK293, read-out: BRET Emax (%)"}, "[8]": {"tested_on": "human descending colon", "assay": "Carbachol-evoked contractions of human descending colon"}, "[9]": {"target": "T2, human κ receptor", "assay": "cell-based", "conditions": "for Emax: HEK293, read-out: TR-FRET Emax (%)"}, "[10]": {"tested_on": "mouse proximal colon", "assay": "Carbachol-induced contractions of mouse proximal colon", "format": "cell-based", "experimental": "Changes in muscle tension were recorded using isometric force transducers (AD Instruments, Chalgrove, UK) on a data acquisition system (Biopac Systems Inc., Goleta, CA, USA). The strips were given 1 g tension and allowed to recover for 30 min during which time the bath solutions were changed every 15 min; this initial tension was previously determined as the optimum required to maximally detect EFS-evoked responses in both regions (data not shown). Electrical Field Stimulation (EFS) was applied at 5 Hz using a maximally-effective voltage (80 V) and 0.5 ms bipolar pulse duration […], given for 30 s every 120 s, for at least 1 hour before drug addition. These parameters of EFS consistently evoked nerve-mediated responses with a good signal-to-noise ratio over spontaneous muscle activity. After obtaining consistent responses, drugs were applied non-cumulatively to separate tissues (20 min contact); changes in resting muscle tension and responses to EFS were measured. Finally, any effects of the drugs on carbachol-induced contractions were examined by first obtaining consistent responses to a submaximally-effective concentration of carbachol (1 μM; 27 ± 9% max, 5 min contact; n = 4). The compounds were then added 5 min before application of carbachol (1 μM, 5 min contact), followed by washing, and this process was repeated at least once more."}, "[11]": {"tested_on": "mouse isolated colon", "assay": "EFS-evoked cholinergically-mediated contractions of mouse isolated colon", "format": "cell-based", "conditions": "for Emax / EC50: Mus musculus; for Emax: read-out: Emax (%), inhibition of EFS-evoked after-contractions; for EC50: read-out: pEC50, inhibition of EFS-evoked after-contractions (converted)"}, "[12]": {"tested_on": "human isolated colon", "conditions": "cited from earlier work"}, "[13]": {"tested_on": "κ receptor", "conditions": "cited from earlier work"}, "[14]": {"tested_on": "human descending colon", "assay": "cells", "format": "cell-based"}, "[15]": {"tested_on": "μ-opioid receptors", "conditions": "cited from earlier work"}, "[16]": {"target": "T2, human κ receptor", "format": "cell-based"}, "[17]": {"target": "T1, mouse κ receptor", "format": "cell-based"}, "[18]": {"tested_on": "tetrodotoxin-sensitive Na+ channels", "conditions": "read-out: EC50, block of tetrodotoxin-sensitive Na+ channels; cited from earlier work"}, "[19]": {"conditions": "human, in vivo; cited from earlier work"}, "[20]": {"conditions": "in vivo; cited from earlier work"}, "[21]": {"tested_on": "K+ channels in mouse epithelia", "conditions": "read-out: IC50, block of K+ channels; cited from earlier work"}}, "note": "Values joined by “and” are separate entries in the source; they are usually repeats but may differ in a detail not shown here. Equal values may be shown once. Where a name gives a salt, the structure may show the parent alone. Read-outs that look alike come from different tables or passages of the source."}
{"compound": "Dynorphin 1-13", "values": [{"measurement": "Arrestin pEC50", "setting": "[1]", "result": "7.01 ± 0.07"}, {"measurement": "G protein pEC50", "setting": "[2]", "result": "8.68 ± 0.07"}, {"measurement": "% inhibition of contractions evoked during EFS", "setting": "[3]", "result": "-30% and -35%"}, {"measurement": "Time to max effect", "setting": "[3]", "result": "17 min and 11 min"}]}
{"compound": "CN(C(=O)Cc1ccc(Cl)c(Cl)c1)C(CN1CCCC1)c1cccc(OCC(=O)O)c1", "note": "(stereo not drawn) [ICI204448]", "values": [{"measurement": "Emax", "setting": "[4]", "result": "92 ± 4", "unit": "%"}, {"measurement": "Emax", "setting": "[5]", "result": "90 ± 4", "unit": "%"}, {"measurement": "IC50", "setting": "[6]", "result": 6.6, "unit": "nM"}, {"measurement": "Arrestin pEC50", "setting": "[1]", "result": "8.48 ± 0.06"}, {"measurement": "biased activity towards the human κ receptor arrestin pathway", "setting": "[1]", "result": "only weak propensity for biased activity"}, {"measurement": "Emax", "setting": "[7]", "result": "100 ± 3", "unit": "%"}, {"measurement": "effect on contractions evoked by carbachol 1 μM", "setting": "[8]; 100 nM, descending colon, no EFS", "result": "−9 ± 2", "unit": "%"}, {"measurement": "Emax", "setting": "[9]", "result": "98 ± 2", "unit": "%"}, {"measurement": "G protein pEC50", "setting": "[2]", "result": "8.38 ± 0.09"}, {"measurement": "effect on contractions induced by carbachol 1 μM", "setting": "[10]; 1 μM, proximal colon", "result": "0 ± 5 % initial carbachol response"}, {"measurement": "Emax (%), inhibition of EFS-evoked after-contractions", "setting": "[11]", "result": "57 ± 7", "unit": "%"}, {"measurement": "reduction of contractions of the distal colon", "setting": "[11]", "result": "70 ± 5", "unit": "%"}, {"measurement": "time taken to achieve maximum activity", "setting": "[11]", "result": "7 ± 2", "unit": "min"}, {"measurement": "Emax", "setting": "[11]", "result": "49 ± 8", "unit": "%"}, {"measurement": "EC50", "setting": "[11]", "result": 3.16, "unit": "nM"}, {"measurement": "Time to max effect", "setting": "[3]", "result": "13 ± 3", "unit": "min"}, {"measurement": "effect on baseline muscle tension", "setting": "[3]", "result": "Neither asimadoline nor ICI204448 changed baseline muscle tension"}, {"measurement": "effect on relaxations evoked by EFS", "setting": "[3]", "result": "1 ± 7 % change from baseline EFS"}, {"measurement": "pEC50, inhibition of contractions during EFS", "setting": "[3]", "result": "8.0 ± 0.4"}, {"measurement": "time to maximum inhibition", "setting": "[3]", "result": "7 ± 1", "unit": "min"}, {"measurement": "inhibition at 1 µM", "setting": "[3]; Homo sapiens", "result": "-57 ± 10", "unit": "%"}, {"measurement": "inhibition at 0.1 µM", "setting": "[3]; Homo sapiens, read-out: inhibition of EFS-evoked contractions", "result": "130 ± 29", "unit": "%"}]}
{"compound": "C[N+](C)(C)CCOC(N)=O", "note": "[carbachol]", "values": [{"measurement": "contraction as % of maximum contraction to carbachol", "setting": "[8]; 1 μM, 5 min contact", "result": "~ 50%"}, {"measurement": "contraction as % max", "setting": "[10]; 1 μM, 5 min contact", "result": "27 ± 9", "unit": "% max"}]}
{"compound": "CC(C)NCC(O)COc1cccc2ccccc12", "note": "(stereo not drawn) [propranolol]", "values": [{"measurement": "effect alone on responses to EFS", "setting": "[3]", "result": "2 ± 3 % change from baseline EFS"}]}
{"compound": "NC1=N[C@H](O)[C@H]2[C@H]3O[C@]4(O)O[C@@H]([C@@H](O)[C@@]2(N1)[C@@H]4O)[C@]3(O)CO", "note": "[tetrodotoxin]", "values": [{"measurement": "effect on EFS-evoked responses (relaxation, after-contraction)", "setting": "[11]", "result": "prevented"}, {"measurement": "effect on responses evoked by EFS", "setting": "[3]", "result": "prevented"}]}
{"compound": "CN1[C@@H]2CC[C@H]1C[C@@H](OC(=O)C(CO)c1ccccc1)C2", "note": "(stereo partly drawn) [atropine]", "values": [{"measurement": "attenuation of after-contractions", "setting": "[12]", "result": "56 ± 12", "unit": "%"}, {"measurement": "increase of EFS-evoked relaxations", "setting": "[11]", "result": "61 ± 13", "unit": "%"}, {"measurement": "reduction of after-contractions", "setting": "[11]", "result": "81 ± 5", "unit": "%"}, {"measurement": "effect on contractions during EFS", "setting": "[3]", "result": "prevented"}]}
{"compound": "COC(=O)[C@@H](N)CCCNC(N)=N[N+](=O)[O-]", "note": "[L-NAME, Nω-nitro-L-arginine methyl ester hydrochloride]", "values": [{"measurement": "effect on EFS-evoked relaxations", "setting": "[11]; 300 μM, proximal and distal colon", "result": "abolished"}, {"measurement": "effect on relaxations during EFS", "setting": "[3]; 300 μM, ascending and descending colon", "result": "prevented"}]}
{"compound": "Cc1ccc(N(CC2=NCCN2)c2cccc(O)c2)cc1", "note": "[phentolamine]", "values": [{"measurement": "effect alone on responses to EFS", "setting": "[3]", "result": "2 ± 3 % change from baseline EFS"}]}
{"compound": "CC[C@](COCc1cc(OC)c(OC)c(OC)c1)(c1ccccc1)N(C)C", "note": "[fedotozine]", "values": [{"measurement": "selectivity for the κ receptor over other opioid receptors", "setting": "[13]", "result": "~2", "unit": "fold"}]}
{"compound": "CN(C(=O)C(c1ccccc1)c1ccccc1)[C@H](CN1CC[C@H](O)C1)c1ccccc1", "note": "[Asimadoline]", "values": [{"measurement": "maximum inhibition of the response to ICI204448 60 nM", "setting": "[14]", "result": "19 ± 7", "unit": "%"}, {"measurement": "IC50", "setting": "[14]; Homo sapiens, read-out: pIC50, reduction of the response to ICI204448 60 nM (converted)", "result": 1.58, "unit": "nM"}, {"measurement": "Emax", "setting": "[4]", "result": "96 ± 3", "unit": "%"}, {"measurement": "concentration activating μ-opioid receptors", "setting": "[15]", "result": 3, "unit": "µM"}, {"measurement": "BIAS", "setting": "[16]", "result": 0.60}, {"measurement": "BIAS", "setting": "[17]", "result": 0.65}, {"measurement": "EC50", "setting": "[18]", "result": 8400, "unit": "nM"}, {"measurement": "Emax", "setting": "[5]", "result": "99 ± 4", "unit": "%"}, {"measurement": "EC50", "setting": "[7]; BRET pEC50", "result": 0.631, "unit": "nM"}, {"measurement": "Emax", "setting": "[7]", "result": "98 ± 5", "unit": "%"}, {"measurement": "effect on contractions evoked by carbachol 1 μM", "setting": "[8]", "result": "−10 ± 9", "unit": "%"}, {"measurement": "EC50", "setting": "[9]", "result": 39.8, "unit": "nM"}, {"measurement": "Emax", "setting": "[9]", "result": "97 ± 2", "unit": "%"}, {"measurement": "effect on colonic transit or postprandial motility", "setting": "[19]", "result": "not to affect colonic transit or postprandial motility"}, {"measurement": "effect on contractions induced by carbachol 1 μM", "setting": "[10]", "result": "5 ± 7"}, {"measurement": "reduction of contractions of the distal colon", "setting": "[11]", "result": "59 ± 13", "unit": "%"}, {"measurement": "time taken to achieve maximum activity", "setting": "[11]", "result": "17 ± 3", "unit": "min"}, {"measurement": "Emax", "setting": "[11]", "result": "52 ± 7", "unit": "%"}, {"measurement": "EC50", "setting": "[11]", "result": 7.94, "unit": "nM"}, {"measurement": "effect on sensation or pain caused by colonic distension", "setting": "[20]", "result": "reduced the sensation or pain caused by colonic distension"}, {"measurement": "Time to max effect", "setting": "[3]", "result": "40 ± 4", "unit": "min"}, {"measurement": "effect on baseline muscle tension", "setting": "[3]", "result": "Neither asimadoline nor ICI204448 changed baseline muscle tension"}, {"measurement": "time to maximum inhibition", "setting": "[3]", "result": "30 ± 5", "unit": "min"}, {"measurement": "inhibition at 1 µM", "setting": "[3]; Homo sapiens", "result": "-29 ± 4", "unit": "%"}, {"measurement": "IC50", "setting": "[21]", "result": 23700, "unit": "nM"}]}
{"compound": "Oc1ccc2c3c1O[C@H]1c4[nH]c5c(c4C[C@@]4(O)[C@@H](C2)N(CC2CC2)CC[C@]314)C[C@@]1(O)[C@H]2Cc3ccc(O)c4c3[C@@]1(CCN2CC1CC1)[C@H]5O4", "note": "[nor-binaltorphamine]", "values": [{"measurement": "effect by itself on the response to EFS", "setting": "[11]", "result": "did not by itself change the response to EFS"}, {"measurement": "effect on inhibition by ICI204448 and asimadoline", "setting": "[11]", "result": "antagonised"}, {"measurement": "effect by itself on contractions to EFS", "setting": "[3]", "result": "by itself did not affect contractions to EFS"}, {"measurement": "intercept of Schild analysis", "setting": "[3]", "result": "−9.7"}, {"measurement": "slope of Schild analysis", "setting": "[3]", "result": "0.53 ± 0.11"}]}
